Measurements: patent US11427549B2, “Pyrimidinyloxy benzo-fused compounds as herbicides” (FMC Corporation, priority 2017, dated 2022)

What was measured:
[1] = system: barnyardgrass (Echinochloa crus-galli); assay: Test A preemergence, barnyardgrass; type: in vivo; settings: Echinochloa crus-galli, pre-emergence, 240 h, 0 to 100 scale (0 no effect, 100 complete control), read-out: Plant response rating, Barnyardgrass; for pest or weed control at 125 g/ha: 125 g ai/ha
Text: (§1) Seeds of plant species selected from barnyardgrass (Echinochloa crus-galli), kochia (Kochia scoparia), ragweed (common ragweed, Ambrosia elatior), ryegrass, Italian (Italian ryegrass, Lolium multiflorum), foxtail, giant (giant foxtail, Setaria faberii), foxtail, green (green foxtail, Setaria viridis) and pigweed (Amaranthus retroflexus) were planted into a blend of loam soil and sand and treated preemergence with a directed soil spray using test chemicals formulated in a non-phytotoxic solvent mixture which included a surfactant.
(§2) At the same time, plants selected from these weed species and also wheat (Triticum aestivum), corn (Zea mays), blackgrass (Alopecurus myosuroides), and galium (catchweed bedstraw, Galium aparine) were planted in pots containing the same blend of loam soil and sand and treated with postemergence applications of test chemicals formulated in the same manner. Plants ranged in height from 2 to 10 cm and were in the one- to two-leaf stage for the postemergence treatment. Treated plants and untreated controls were maintained in a greenhouse for approximately 10 days, after which time all treated plants were compared to untreated controls and visually evaluated for injury. […] A dash (-) response means no test result.

kochia (Kochia scoparia) [2] = assay: Test A preemergence, kochia; type: in vivo; settings: Bassia scoparia, pre-emergence, 240 h, 0 to 100 scale (0 no effect, 100 complete control), read-out: Plant response rating, Kochia; for pest or weed control at 125 g/ha: 125 g ai/ha
Text: as §1, §2

[3] = system: ragweed (common ragweed, Ambrosia elatior); assay: Test A preemergence, ragweed; type: in vivo; settings: Ambrosia artemisiifolia, pre-emergence, 240 h, 0 to 100 scale (0 no effect, 100 complete control), read-out: Plant response rating, Ragweed; for pest or weed control at 125 g/ha: 125 g ai/ha
Text: as §1, §2

[4] = system: ryegrass, Italian (Italian ryegrass, Lolium multiflorum); assay: Test A preemergence, ryegrass, Italian; type: in vivo; settings: Lolium multiflorum, pre-emergence, 240 h, 0 to 100 scale (0 no effect, 100 complete control), read-out: Plant response rating, Ryegrass, Italian; for pest or weed control at 125 g/ha: 125 g ai/ha
Text: as §1, §2

[5] = system: pigweed (Amaranthus retroflexus); assay: Test A preemergence, pigweed; type: in vivo; settings: Amaranthus retroflexus, pre-emergence, 240 h, 0 to 100 scale (0 no effect, 100 complete control), read-out: Plant response rating, Pigweed; for pest or weed control at 125 g/ha: 125 g ai/ha
Text: as §1, §2

[6] = system: barnyardgrass (Echinochloa crus-galli); assay: Test A postemergence, barnyardgrass; type: in vivo; settings: Echinochloa crus-galli, post-emergence, 240 h, 0 to 100 scale (0 no effect, 100 complete control), read-out: Plant response rating, Barnyardgrass; for pest or weed control at 125 g/ha: 125 g ai/ha
Text: as §1, §2

kochia (Kochia scoparia) [7] = assay: Test A postemergence, kochia; type: in vivo; settings: Bassia scoparia, post-emergence, 240 h, 0 to 100 scale (0 no effect, 100 complete control), read-out: Plant response rating, Kochia; for pest or weed control at 125 g/ha: 125 g ai/ha
Text: as §1, §2

[8] = system: ragweed (common ragweed, Ambrosia elatior); assay: Test A postemergence, ragweed; type: in vivo; settings: Ambrosia artemisiifolia, post-emergence, 240 h, 0 to 100 scale (0 no effect, 100 complete control), read-out: Plant response rating, Ragweed; for pest or weed control at 125 g/ha: 125 g ai/ha
Text: as §1, §2

[9] = system: ryegrass, Italian (Italian ryegrass, Lolium multiflorum); assay: Test A postemergence, ryegrass, Italian; type: in vivo; settings: Lolium multiflorum, post-emergence, 240 h, 0 to 100 scale (0 no effect, 100 complete control), read-out: Plant response rating, Ryegrass, Italian; for pest or weed control at 125 g/ha: 125 g ai/ha
Text: as §1, §2

[10] = system: pigweed (Amaranthus retroflexus); assay: Test A postemergence, pigweed; type: in vivo; settings: Amaranthus retroflexus, post-emergence, 240 h, 0 to 100 scale (0 no effect, 100 complete control), read-out: Plant response rating, Pigweed; for pest or weed control at 125 g/ha: 125 g ai/ha
Text: as §1, §2

[11] = system: wheat (Triticum aestivum); assay: Test A postemergence, wheat; type: in vivo; settings: Triticum aestivum, post-emergence, 240 h, 0 to 100 scale (0 no effect, 100 complete control), read-out: Plant response rating, Wheat; for plant injury at 125 g/ha: 125 g ai/ha
Text: as §1, §2

corn (Zea mays) = assay: Test A postemergence, corn; type: in vivo; settings: Zea mays, post-emergence, 240 h, 0 to 100 scale (0 no effect, 100 complete control); for Corn plant response rating (crop injury, 0 = no effect, 100 = complete kill) at 125 g/ha: 125 g ai/ha
Text: as §1, §2

[12] = system: blackgrass (Alopecurus myosuroides); assay: Test A postemergence, blackgrass; type: in vivo; settings: Alopecurus myosuroides, post-emergence, 240 h, 0 to 100 scale (0 no effect, 100 complete control), read-out: Plant response rating, Blackgrass; for pest or weed control at 125 g/ha: 125 g ai/ha
Text: as §1, §2

[13] = system: galium (catchweed bedstraw, Galium aparine); assay: Test A postemergence, galium; type: in vivo; settings: Galium, post-emergence, 240 h, 0 to 100 scale (0 no effect, 100 complete control), read-out: Plant response rating, Galium; for pest or weed control at 125 g/ha: 125 g ai/ha
Text: as §1, §2

rice (Oryza sativa) = assay: Test B flooded paddy test, rice; settings: Oryza sativa, read-out: Plant response rating, Rice (0 to 100 scale, 0 is no effect, 100 is complete control)
[14] = system: ducksalad (Heteranthera limosa); assay: Test B flooded paddy test, ducksalad; settings: Heteranthera limosa, read-out: Plant response rating, Ducksalad (0 to 100 scale, 0 is no effect, 100 is complete control)
[15] = system: barnyardgrass (Echinochloa crus-galli); assay: Test B flooded paddy test, barnyardgrass; settings: Echinochloa crus-galli, read-out: Plant response rating, Barnyardgrass (0 to 100 scale, 0 is no effect, 100 is complete control)

OC1(CCC(F)(F)F)CCc2cccc(Oc3ncc(Cl)cn3)c21 (centres unmarked) [Compound 14, 7-[(5-Chloro-2-pyrimidinyl)oxy]-2,3-dihydro-1-(3,3,3-trifluoropropyl)-1H-inden-1-ol]
pest or weed control at 125 g/ha [1]: 20% | pest or weed control at 500 g/ha ([1]; 500 g ai/ha): 90% | pest or weed control at 125 g/ha (kochia (Kochia scoparia) [2]): 50% | pest or weed control at 500 g/ha (kochia (Kochia scoparia) [2]; 500 g ai/ha): 100% | pest or weed control at 125 g/ha [3]: 40% | pest or weed control at 500 g/ha ([3]; 500 g ai/ha): 70% | pest or weed control at 125 g/ha [4]: 10% | pest or weed control at 500 g/ha ([4]; 500 g ai/ha): 60% | pest or weed control at 125 g/ha [5]: 100% | pest or weed control at 500 g/ha ([5]; 500 g ai/ha): 100% | pest or weed control at 125 g/ha [6]: 30% | pest or weed control at 500 g/ha ([6]; 500 g ai/ha): 80% | pest or weed control at 125 g/ha (kochia (Kochia scoparia) [7]): 80% | pest or weed control at 500 g/ha (kochia (Kochia scoparia) [7]; 500 g ai/ha): 80% | pest or weed control at 125 g/ha [8]: 70% | pest or weed control at 500 g/ha ([8]; 500 g ai/ha): 90% | pest or weed control at 125 g/ha [9]: 20% | pest or weed control at 500 g/ha ([9]; 500 g ai/ha): 90% | pest or weed control at 125 g/ha [10]: 50% | pest or weed control at 500 g/ha ([10]; 500 g ai/ha): 100% | plant injury at 125 g/ha [11]: 30% | plant injury at 500 g/ha ([11]; 500 g ai/ha): 60% | Corn plant response rating (crop injury, 0 = no effect, 100 = complete kill) at 125 g/ha (corn (Zea mays)): 10% | Corn plant response rating (crop injury, 0 = no effect, 100 = complete kill) at 500 g/ha (corn (Zea mays); 500 g ai/ha): 40% | pest or weed control at 125 g/ha [12]: 40% | pest or weed control at 500 g/ha ([12]; 500 g ai/ha): 90% | pest or weed control at 125 g/ha [13]: 50% | pest or weed control at 500 g/ha ([13]; 500 g ai/ha): 90% | plant injury at 250 g/ha (rice (Oryza sativa)): 0% | pest or weed control at 250 g/ha [14]: 40% | pest or weed control at 250 g/ha [15]: 0%

FC(F)(F)CCCC1OCc2cccc(Oc3ncc(Cl)cn3)c21 (centres unmarked) [Compound 7, 5-chloro-2-[[1,3-dihydro-3-(4,4,4-trifluorobutyl)-4-isobenzofuranyl]oxy]-pyrimidine]
pest or weed control at 31 g/ha ([1]; 31 g ai/ha): 20% | pest or weed control at 125 g/ha [1]: 90% | pest or weed control at 31 g/ha (kochia (Kochia scoparia) [2]; 31 g ai/ha): 0% | pest or weed control at 125 g/ha (kochia (Kochia scoparia) [2]): 100% | pest or weed control at 31 g/ha ([3]; 31 g ai/ha): 0% | pest or weed control at 125 g/ha [3]: 0% | pest or weed control at 31 g/ha ([4]; 31 g ai/ha): 0% | pest or weed control at 125 g/ha [4]: 50% | pest or weed control at 31 g/ha ([5]; 31 g ai/ha): 20% | pest or weed control at 125 g/ha [5]: 100% | pest or weed control at 31 g/ha ([6]; 31 g ai/ha): 20% | pest or weed control at 125 g/ha [6]: 60% | pest or weed control at 31 g/ha (kochia (Kochia scoparia) [7]; 31 g ai/ha): 90% | pest or weed control at 125 g/ha (kochia (Kochia scoparia) [7]): 100% | pest or weed control at 31 g/ha ([8]; 31 g ai/ha): 0% | pest or weed control at 125 g/ha [8]: 0% | pest or weed control at 31 g/ha ([9]; 31 g ai/ha): 20% | pest or weed control at 125 g/ha [9]: 60% | pest or weed control at 31 g/ha ([10]; 31 g ai/ha): 80% | pest or weed control at 125 g/ha [10]: 100% | plant injury at 31 g/ha ([11]; 31 g ai/ha): 10% | plant injury at 125 g/ha [11]: 30% | Corn plant response rating (crop injury, 0 = no effect, 100 = complete kill) at 31 g/ha (corn (Zea mays); 31 g ai/ha): 20% | Corn plant response rating (crop injury, 0 = no effect, 100 = complete kill) at 125 g/ha (corn (Zea mays)): 40% | pest or weed control at 31 g/ha ([12]; 31 g ai/ha): 10% | pest or weed control at 125 g/ha [12]: 70% | pest or weed control at 31 g/ha ([13]; 31 g ai/ha): 50% | pest or weed control at 125 g/ha [13]: 100% | plant injury at 250 g/ha (rice (Oryza sativa)): 40% | pest or weed control at 250 g/ha [14]: 100% | pest or weed control at 250 g/ha [15]: 40%
